Results published in patent US9938260B2, “Soluble guanylate cyclase activators and their use” (GlaxoSmithKline Intellectual Property Development Limited, priority 2014, dated 2018).
Where a name gives a salt, the structure may show the parent alone.

Biological target: T1, soluble guanylate cyclase (sGC) (Rattus norvegicus, UniProt P20595)
T1 construct: endogenous in cells; host or cells: primary rat aortic smooth muscle cells
T1 sequence (P20595 1-619): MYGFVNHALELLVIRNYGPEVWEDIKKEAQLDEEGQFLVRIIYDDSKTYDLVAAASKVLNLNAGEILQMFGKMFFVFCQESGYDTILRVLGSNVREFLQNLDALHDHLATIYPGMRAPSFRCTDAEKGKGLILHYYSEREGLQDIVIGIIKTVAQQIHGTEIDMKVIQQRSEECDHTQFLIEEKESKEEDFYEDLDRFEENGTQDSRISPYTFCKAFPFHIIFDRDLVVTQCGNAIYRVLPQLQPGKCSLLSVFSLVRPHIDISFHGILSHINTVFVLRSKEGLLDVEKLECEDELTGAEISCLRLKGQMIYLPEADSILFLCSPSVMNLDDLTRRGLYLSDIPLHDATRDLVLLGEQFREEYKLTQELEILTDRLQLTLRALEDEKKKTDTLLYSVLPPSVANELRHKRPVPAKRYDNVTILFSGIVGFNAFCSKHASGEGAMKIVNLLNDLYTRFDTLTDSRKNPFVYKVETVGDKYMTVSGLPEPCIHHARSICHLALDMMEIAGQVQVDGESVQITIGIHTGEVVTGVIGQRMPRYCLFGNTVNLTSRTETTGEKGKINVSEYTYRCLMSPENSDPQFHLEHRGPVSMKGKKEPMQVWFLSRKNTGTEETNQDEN
T1 sequence (P19686 1-690 partner): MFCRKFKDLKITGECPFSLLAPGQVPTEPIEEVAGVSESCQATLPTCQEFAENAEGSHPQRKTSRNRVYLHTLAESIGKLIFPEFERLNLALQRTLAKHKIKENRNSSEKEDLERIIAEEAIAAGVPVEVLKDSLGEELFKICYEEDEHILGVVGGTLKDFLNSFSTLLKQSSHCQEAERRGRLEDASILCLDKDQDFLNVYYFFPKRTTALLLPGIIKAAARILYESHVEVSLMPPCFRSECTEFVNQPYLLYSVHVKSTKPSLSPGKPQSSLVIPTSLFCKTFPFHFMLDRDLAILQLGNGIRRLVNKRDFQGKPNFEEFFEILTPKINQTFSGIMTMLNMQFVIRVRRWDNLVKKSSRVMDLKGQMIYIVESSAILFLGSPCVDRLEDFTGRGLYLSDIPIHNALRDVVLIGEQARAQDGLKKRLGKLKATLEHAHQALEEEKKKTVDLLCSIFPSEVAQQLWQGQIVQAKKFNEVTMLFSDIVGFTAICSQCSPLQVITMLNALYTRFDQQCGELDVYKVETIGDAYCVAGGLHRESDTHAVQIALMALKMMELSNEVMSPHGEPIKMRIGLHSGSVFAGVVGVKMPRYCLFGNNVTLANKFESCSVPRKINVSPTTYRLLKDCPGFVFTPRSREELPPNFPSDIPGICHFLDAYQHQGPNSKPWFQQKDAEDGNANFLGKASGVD
Assay: Biological cellular assay: sGC activity by phosphorylation of VASP in rat aortic smooth muscle cells
Format: cell-based
Details: primary rat aortic smooth muscle cells, pre-incubated with 10 μM ODQ, 30 min at 37° C., phospho-VASP (pSer239) fluorescent signal; read-out: Cell assay pEC50 (converted)
Method: The activity of soluble guanylate cyclase (sGC) was tested in an assay based on measuring phosphorylation of the protein kinase G (PKG) substrate vasodilator-stimulated phosphoprotein (VASP) in rat aortic smooth muscle cells. […] Dimethylsulfoxide (DMSO) vehicle and varying concentrations of the compound to be tested were then added. Following a 30 min incubation at 37° C., media was aspirated and the cells were rinsed with phosphate-buffered saline (PBS) and fixed with 4% formaldehyde in PBS by incubating at room temperature for 20 min. Cells were then washed with PBS and permeabilized for 10 min using 0.1% triton X-100 in PBS. Following PBS rinsing, the cells were blocked for 90 min at room temperature with blocking buffer. The buffer was aspirated and the cells were treated overnight at 4° C. with primary antibody (pSer239-VASP, rabbit polyclonal Ab) diluted 1:500 in blocking buffer. Following three washes with 0.05% Tween 20, the cells were treated for 1 h at room temperature with a fluorescent labeled secondary antibody (IRDye® 800CW Donkey Anti-Rabbit IgG) diluted 1:2500 in blocking buffer with 0.05% Tween 20. Following two washes with PBS, infrared fluorescence was measured using an Odyssey Infrared Imaging System. The activity of a test compound was determined as the pEC50 value which is the concentration able to increase by 50% (vs. Bmax) the phospho-VASP fluorescent signal. Front. Pharmacol., 5 Jul. 2012|doi: 10.3389/fphar.2012.00128, Volume 3 July, 2012, Article number 128.

Row | Structure (SMILES) | EC50 [nM]
1 | CCOC(=O)C1CCN(c2cccc(-c3cc(F)cc(F)c3OCc3ccc(C4CCN(CC#N)CC4)cc3C)n2)CC1 [Example 1, ethyl 1-(6-(2-((4-(1-(cyanomethyl)piperidin-4-yl)-2-methylbenzyl)oxy)-3,5-difluorophenyl)pyridin-2-yl)piperidine-4-carboxylate] | 0.631
2 | Cc1cc(C2CCN(CC(F)(F)F)CC2)ccc1COc1c(F)cc(F)cc1-c1cccc(N2CCC(C(=O)O)CC2)n1 [Example 5, 1-(6-(3,5-difluoro-2-((2-methyl-4-(1-(2,2,2-trifluoroethyl)piperidin-4-yl)benzyl)oxy)phenyl)pyridin-2yl)piperidine-4-carboxylic acid] | 0.501
3 | Cc1cc(C2CCN(C(=O)C3COC3)CC2)ccc1COc1c(F)cc(F)cc1-c1cccc(N2CCC(C(=O)O)CC2)n1 [Example 6, 1-(6-(3,5-difluoro-2-((2-methyl-4-(1-(oxetane-3-carbonyl)piperidin-4-yl)benzyl)oxy)phenyl)pyridin-2yl)piperidine-4-carboxylic acid] | 0.1
4 | Cc1cc(C2CCN(CC(F)(F)F)CC2)ncc1COc1c(F)cc(F)cc1-c1cccc(N2CCC(C(=O)O)CC2)n1 [Example 9, 1-(6-(3,5-difluoro-2-((4-methyl-6-(1-(2,2,2-trifluoroethyl)piperidin-4-yl)pyridin-3-yl)methoxy)phenyl)pyridin-2-yl)piperidine-4-carboxylic acid, sodium salt] | 10
5 | Cc1nc(C2CCN(CC(F)(F)F)CC2)ccc1COc1c(F)cc(F)cc1-c1cccc(N2CCC(C(=O)O)CC2)n1 [Example 14, 1-(6-(3,5-difluoro-2-((2-methyl-6-(1-(2,2,2-trifluoroethyl)piperidin-4-yl)pyridin-3-yl)methoxy)phenyl)pyridin-2-yl)piperidine-4-carboxylic acid] | 10
6 | Cc1nc(C2CCN(C3COC3)CC2)ccc1COc1c(F)cc(F)cc1-c1cccc(N2CCC(C(=O)O)CC2)n1 [Example 17, 1-(6-(3,5-difluoro-2-((2-methyl-6-(1-(oxetan-3-yl)piperidin-4-yl)pyridin-3-yl)methoxy)phenyl)pyridin-2-yl)piperidine-4-carboxylic acid] | 79.4
7 | Cc1nc(C2CCN(C3CCOC3)CC2)ccc1COc1c(F)cc(F)cc1-c1cccc(N2CCC(C(=O)O)CC2)n1 (stereo not shown) [Example 20, 1-(6-(3,5-difluoro-2-((2-methyl-6-(1-(tetrahydrofuran-3-yl)piperidin-4-yl)pyridin-3-yl)methoxy)phenyl)pyridin-2-yl)piperidine-4-carboxylic acid] | 158
8 | Cc1nc(C2CCN(CC3CCOC3)CC2)ccc1COc1c(F)cc(F)cc1-c1cccc(N2CCC(C(=O)O)CC2)n1 (stereo not shown) [Example 23, 1-(6-(3,5-difluoro-2-((2-methyl-6-(1-((tetrahydrofuran-3-yl)methyl)piperidin-4-yl)pyridin-3-yl)methoxy)phenyl)pyridin-2-yl)piperidine-4-carboxylic acid] | 251
9 | Cc1nc(C2CCN(CC#N)CC2)ccc1COc1c(F)cc(F)cc1-c1cccc(N2CCC(C(=O)O)CC2)n1 [Example 27, 1-(6-(2-((6-(1-(cyanomethyl)piperidin-4-yl)-2-methylpyridin-3-yl)methoxy)-3,5-difluorophenyl)pyridin-2-yl)piperidine-4-carboxylic acid, Sodium salt] | 39.8
10 | Cc1nc(C2CCN(C(=O)C3COC3)CC2)ccc1COc1c(F)cc(F)cc1-c1cccc(N2CCC(C(=O)O)CC2)n1 [Example 30, 1-(6-(3,5-difluoro-2-((2-methyl-6-(1-(oxetane-3-carbonyl)piperidin-4-yl)pyridin-3-yl)methoxy)phenyl)pyridin-2-yl)piperidine-4-carboxylic acid, Sodium salt,] | 20
11 | Cc1nc(C2CCN(C(=O)CO)CC2)ccc1COc1c(F)cc(F)cc1-c1cccc(N2CCC(C(=O)O)CC2)n1 [Example 33, 1-(6-(3,5-difluoro-2-((6-(1-(2-hydroxyacetyl)piperidin-4-yl)-2-methylpyridin-3-yl)methoxy)phenyl)pyridin-2-yl)piperidine-4-carboxylic acid, Sodium salt] | 15.8
12 | Cc1cc(C2CCN(C3COC3)CC2)ccc1COc1c(Cl)cccc1-c1cccc(N2CCC(C(=O)O)CC2)n1 [Example 36, 1-(6-(3-chloro-2-((2-methyl-4-(1-(oxetan-3-yl)piperidin-4-yl)benzyl)oxy)phenyl)pyridin-2-yl)piperidine-4-carboxylic acid, Sodium salt] | 10
13 | Cc1cc(C2CCN(C3COC3)CC2)ccc1COc1c(F)cc(F)cc1-c1cccc(N2CCC(C(=O)O)CC2)n1 [Example 39, 1-(6-(3,5-difluoro-2-((2-methyl-4-(1-(oxetan-3-yl)piperidin-4-yl)benzyl)oxy)phenyl)pyridin-2-yl)piperidine-4-carboxylic acid, Sodium salt] | 0.794
14 | Cc1cc(C2CCN(C3CCOC3)CC2)ccc1COc1c(F)cc(F)cc1-c1cccc(N2CCC(C(=O)O)CC2)n1 (stereo not shown) [Example 42, 1-(6-(3,5-difluoro-2-((2-methyl-4-(1-(tetrahydrofuran-3-yl)piperidin-4-yl)benzyl)oxy)phenyl)pyridin-2-yl)piperidine-4-carboxylic acid, Sodium salt] | 2.51
15 | Cc1cc(C2CCN(C3CC3)CC2)ccc1COc1c(F)cc(F)cc1-c1cccc(N2CCC(C(=O)O)CC2)n1 [Example 45, 1-(6-(2-((4-(1-cyclopropylpiperidin-4-yl)-2-methylbenzyl)oxy)-3,5-difluorophenyl)pyridin-2-yl)piperidine-4-carboxylic acid, Sodium salt] | 3.16
16 | COCCN1CCC(c2ccc(COc3c(F)cc(F)cc3-c3cccc(N4CCC(C(=O)O)CC4)n3)c(C)c2)CC1 [Example 48, 1-(6-(3,5-difluoro-2-((4-(1-(2-methoxyethyl)piperidin-4-yl)-2-methylbenzyl)oxy)phenyl)pyridin-2-yl)piperidine-4-carboxylic acid, Sodium salt] | 15.8
17 | Cc1cc(C2CCN(CCO)CC2)ccc1COc1c(F)cc(F)cc1-c1cccc(N2CCC(C(=O)O)CC2)n1 [Example 51, 1-(6-(3,5-difluoro-2-((4-(1-(2-hydroxyethyl)piperidin-4-yl)-2-methylbenzyl)oxy)phenyl)pyridin-2-yl)piperidine-4-carboxylic acid, Sodium salt] | 31.6
18 | Cc1cc(C2CCN(CCC(F)(F)F)CC2)ccc1COc1c(F)cc(F)cc1-c1cccc(N2CCC(C(=O)O)CC2)n1 [Example 54, 1-(6-(3,5-difluoro-2-((2-methyl-4-(1-(3,3,3-trifluoropropyl)piperidin-4-yl)benzyl)oxy)phenyl)pyridin-2-yl)piperidine-4-carboxylic acid, Sodium salt] | 2.51
19 | Cc1cc(C2CCN(C(=O)CO)CC2)ccc1COc1c(F)cc(F)cc1-c1cccc(N2CCC(C(=O)O)CC2)n1 [Example 57, 1-(6-(3,5-difluoro-2-((4-(1-(2-hydroxyacetyl)piperidin-4-yl)-2-methylbenzyl)oxy)phenyl)pyridin-2-yl)piperidine-4-carboxylic acid, Sodium salt] | 0.0794
